Test results published in patent publication US7683181B2, “Cyclic N-[1,3,4]-thiadiazol-2-yl-benzene sulfonamides, pharmaceutical compositions and methods for the therapeutic use thereof” (Sanofi-aventis, priority 2005, dated 2010).

What was measured:
[1] = biological target: T1, human PPARdelta (Homo sapiens, UniProt Q03181); assay: cellular PPARdelta assay (stably transfected HEK luciferase reporter cell line); type: cell-based; conditions: GR-GAL4-humanPPARdelta-LBD
T1 construct: amino acids S139-Y441; expressed in transfected cells
T1 sequence (Q03181 139-441): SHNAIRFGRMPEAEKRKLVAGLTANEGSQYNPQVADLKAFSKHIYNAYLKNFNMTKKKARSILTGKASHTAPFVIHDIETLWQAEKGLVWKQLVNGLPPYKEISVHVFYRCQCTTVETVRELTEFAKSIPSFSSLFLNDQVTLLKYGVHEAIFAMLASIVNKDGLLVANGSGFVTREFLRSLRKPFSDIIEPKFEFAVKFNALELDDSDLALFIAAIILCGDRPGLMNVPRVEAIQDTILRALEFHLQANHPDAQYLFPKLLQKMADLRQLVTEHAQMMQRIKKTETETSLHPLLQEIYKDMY
Method: The assay plates are incubated in an incubator at 37° C. and 5% CO2 for 24 h. […]
The raw data from the luminometer are transferred into a Microsoft Excel file. Dose-effect plots and EC50 values of PPAR agonists are calculated using the XL.Fit program as specified by the manufacturer (IDBS).
The potency of substances which bind to human PPARdelta and activate it in an agonistic manner was analyzed through the determination of the EC50 values of PPAR agonists in the cellular PPARdelta assay using a stably transfected HEK cell line (HEK=human embryo kidney) which is referred to here as PPARdelta reporter cell line. In analogy to the assay described for PPARalpha, the PPARdelta reporter cell line also contains two genetic elements, a luciferase reporter element (pdeltaM-GAL4-Luc-Zeo) and a PPARdelta fusion protein (GR-GAL4-humanPPARdelta-LBD) which mediates expression of the luciferase reporter element depending on a PPARdelta ligand. The stably and constitutively expressed fusion protein GR-GAL4-humanPPARdelta-LBD binds in the cell nucleus of the PPARdelta reporter cell line via the GAL4 protein portion to the GAL4 DNA binding motifs 5′-upstream of the luciferase reporter element which is stably integrated in the genome of the cell line. There is only little expression of the luciferase reporter gene in the absence of a PPARdelta ligand if fatty acid-depleted fetal calf serum (cs-FCS) is used in the assay. PPARdelta ligands bind and activate the PPARdelta fusion protein and thereby stimulate expression of the luciferase reporter gene. The luciferase which is formed can be detected by means of chemiluminescence via an appropriate substrate.
The production of the stable PPARdelta reporter cell line is based on a stable HEK-cell clone which was stably transfected with a luciferase reporter element. This step was already described above in the section “construction of the PPARalpha reporter cell line”. […]
The activity of PPARdelta agonists is determined in a 3-day assay in exact analogy to the procedure already described for the PPARalpha reporter cell line except that the PPARdelta reporter cell line and a specific PPARdelta agonist was used as a standard to control test efficacy.

[2] = biological target: T2, human PPARgamma (Homo sapiens, UniProt P37231); assay: cellular PPARgamma assay (transiently transfected HEK cells, luciferase reporter); type: cell-based; conditions: GAL4-humanPPARgammaLBD
T2 construct: amino acids I152-Y475; expressed in transfected cells; host or cells: HEK cells, transient transfection of pcDNA3-GAL4-humanPPARgammaLBD
Source text: Determination of EC50 values of PPAR agonists in the cellular PPARgamma assay
A transient transfection system is employed to determine the cellular PPARgamma activity of PPAR agonists. It is based on the use of a luciferase reporter plasmid (pGL3basic-5×GAL4-TK) and of a PPARgamma expression plasmid (pcDNA3-GAL4-humanPPARgammaLBD). Both plasmids are transiently transfected into human embryonic kidney cells (HEK cells). There is then expression in these cells of the fusion protein GAL4-humanPPARgammaLBD which binds to the GAL4 binding sites of the reporter plasmid. In the presence of a PPARgamma-active ligand, the activated fusion protein GAL4-humanPPARgammaLBD induces expression of the luciferase reporter gene, which can be detected in the form of a chemiluminescence signal after addition of a luciferase substrate. As a difference from the stably transfected PPARalpha reporter cell line, in the cellular PPARgamma assay the two components (luciferase reporter plasmid and PPARgamma expression plasmid) are transiently transfected into HEK cells because stable and permanent expression of the PPARgamma fusion protein is cytotoxic.
The luciferase reporter plasmid pGL3basic-5×GAL4-TK is based on the vector pGL3basic from Promega. The reporter plasmid is prepared by cloning five binding sites of the yeast transcription factor GAL4 (each binding site with the sequence 5′-CTCGGAGGACAGTACTCCG-3′), together with a 160 bp-long thymidine kinase promoter section (Genbank Accession #AF027128) 5′-upstream into pGL3basic. 3′-downstream of the thymidine kinase promoter is the complete luciferase gene from Photinus pyralis (Genbank Accession #M15077) which is already a constituent of the plasmid pGL3basic used. The cloning and sequencing of the reporter plasmid pGL3basic-5×GAL4-TK took place in analogy to the description in Sambrook J. et. al. (Molecular cloning, Cold Spring Harbor Laboratory Press, 1989).
The PPARgamma expression plasmid pcDNA3-GAL4-humanPPARgammaLBD was prepared by first cloning the cDNA coding for amino acids 1-147 of the yeast transcription factor GAL4 (Genbank Accession #P04386) into the plasmid pcDNA3 (from Invitrogen) 3′-downstream of the cytomegalovirus promoter. Subsequently, the cDNA of the ligand-binding domain (LBD) of the human PPARgamma receptor (amino acids I152-Y475; Accession #g1480099) 3′-downstream of the GAL4 DNA binding domain. Cloning and sequencing of the PPARgamma expression plasmid pcDNA3-GAL4-humanPPARgammaLBD again took place in analogy to the description in Sambrook J. et. al. (Molecular cloning, Cold Spring Harbor Laboratory Press, 1989). […]
The activity of PPARgamma agonists is determined in a 4-day assay which is described below. […]

[3] = system: PPARdelta; conditions: diabetic animal model; cited from earlier work
[4] = system: PPARdelta; conditions: obese, insulin resistant rhesus monkeys; cited from earlier work

T2 sequence (P37231 with tags, fused parts or gaps isoform P37231-2 limits assumed): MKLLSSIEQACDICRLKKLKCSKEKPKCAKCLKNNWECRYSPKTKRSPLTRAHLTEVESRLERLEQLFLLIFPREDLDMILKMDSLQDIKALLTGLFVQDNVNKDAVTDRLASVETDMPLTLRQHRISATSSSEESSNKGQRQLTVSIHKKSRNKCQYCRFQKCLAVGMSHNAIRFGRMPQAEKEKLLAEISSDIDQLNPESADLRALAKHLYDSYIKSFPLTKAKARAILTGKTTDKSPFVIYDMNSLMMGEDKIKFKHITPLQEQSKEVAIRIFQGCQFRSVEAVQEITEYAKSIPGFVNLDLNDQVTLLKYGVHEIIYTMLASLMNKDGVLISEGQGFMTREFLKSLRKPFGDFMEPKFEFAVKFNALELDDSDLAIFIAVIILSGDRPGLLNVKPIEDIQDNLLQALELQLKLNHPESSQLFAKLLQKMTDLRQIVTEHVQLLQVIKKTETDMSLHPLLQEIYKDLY

EC50 [1] [nM]	EC50 [2] [nM]	SMILES	also measured
120	> 10000	CCOc1cc(C(F)(F)F)ccc1C(=O)NCC1(c2ccc(S(=O)(=O)Nc3nnc(C(C)C)s3)cc2)CCCCC1 [Example 1, 2-Ethoxy-N-{1-[4-(5-isopropyl-[1,3,4]thiadiazol-2-ylsulfamoyl)-phenyl]-cyclohexylmethyl}-4-trifluoromethyl-benzamide]	
		CCCc1c(OCCCOc2ccc(OCC(=O)O)cc2)ccc(C(C)=O)c1O [Example L-165041]	plasma cholesterol [3]: raises
240	230	CCOc1cc(C(F)(F)F)ccc1C(=O)N[C@@H]1CCC[C@@H]1c1ccc(S(=O)(=O)Nc2nnc(C(C)C)s2)cc1 (relative stereo) [Example 3, 2-Ethoxy-N-{cis-2-[4-(5-isopropyl-[1,3,4]thiadiazol-2-ylsulfamoyl)-phenyl]-cyclopentyl}-4-trifluoromethyl-benzamide]	
26	430	CCOc1cc(C(F)(F)F)ccc1C(=O)N[C@@H]1CCC[C@H]1c1ccc(S(=O)(=O)Nc2nnc(C(C)C)s2)cc1 (relative stereo) [Example 2, 2-Ethoxy-N-{trans-2-[4-(5-isopropyl-[1,3,4]thiadiazol-2-ylsulfamoyl)-phenyl]-cyclopentyl}-4-trifluoromethyl-benzamide]	
		Cc1cc(SCc2sc(-c3ccc(C(F)(F)F)cc3)nc2C)ccc1OCC(=O)O [GW501516]	HDL-cholesterol [4]: raises; insulin levels [4]: decreases; plasma LDL-cholesterol [4]: decreases; triglycerides [4]: decreases
21	7	CCOc1cc(C(F)(F)F)ccc1C(=O)NCC1(c2ccc(S(=O)(=O)Nc3nnc(C(C)C)s3)cc2)CCCC1 [Example 4, 2-Ethoxy-N-{1-[4-(5-isopropyl-[1,3,4]thiadiazol-2-ylsulfamoyl)-phenyl]-cyclopentylmethyl}-4-trifluoromethyl-benzamide]	
